# Test results as given in patent US20110152093A1, “Herbicidal compositions comprising flufenacet” (Bayer CropScience AG, priority 2009, published 2011).
# What was measured:
# Type in all cases: in vivo
# LOLPE (Lolium perenne) [1] = test: PE action under various irrigation conditions, test method 6; conditions: PE application, g of AS/ha: (A) 90, (B) 1200, (C) 140, (A)+(B)+(C) 90 + 1200 + 140
# Procedure: (§1) In the standard design of the test, seeds of various broad-leaved weed and weed grass biotypes (origins) were sown in a 8-13 cm diameter pot filled with natural soil of a standard field soil (loamy silt; non-sterile) and covered with a covering soil layer of about 1 cm. The pots were then cultivated in a greenhouse (12-16 h of light, temperature day 20-22° C., night 15-18° C.) until the time of application. The pots were treated on a laboratory track sprayer with spray liquors comprising the compositions according to the invention, mixtures of the prior art or components used individually. Application of the active compounds or active compound combinations formulated as WG, WP, EC or otherwise was carried out at the appropriate growth stages of the plants. The application rate for the spray application was 100-600 l of water/ha. After the treatment, the plants were returned to the greenhouses.
# (§2) About 3 weeks after the application, the soil action or/and foliar action was assessed visually according to a scale of 0-100% in comparison to an untreated comparative group: 0%=no noticeable effect compared to the untreated comparative group; 100%=full effect compared to the untreated comparative group.
# (§3) (notes: the term “seeds” also includes vegetative propagation forms such as, for example, rhizome pieces; abbreviations used: h light=hours of illumination, g of AS/ha=gram of active substance per hectare, l/ha=liter per hectare, S=sensitive, R=resistant) • 1. Pre-emergence action against weeds: seeds of various broad-leaved weed and weed grass biotypes (origins) were sown in a 8-13 cm diameter pot filled with natural soil of a standard field soil (loamy silt; non-sterile) and covered with a covering soil layer of about 1 cm. The pots were then cultivated in a greenhouse (12-16 h of light, temperature day 20-22° C., night 15-18° C.) until the time of application. The pots were treated at the BBCH stage 00-10 of the seeds/plants on a laboratory track sprayer with spray liquors comprising the compositions according to the invention, mixtures or components used individually, as WG, WP, EC or other formulations. The application rate for the spray application was 100-600 l of water/ha. After the treatment, the plants were returned to the greenhouses and, when required, treated with fertilizer and watered. • 2. Post-emergence action against weeds: seeds of various broad-leaved weed and weed grass biotypes (origins) were sown in a 8-13 cm diameter pot filled with natural soil of a standard field soil (loamy silt; non-sterile) and covered with a covering soil layer of about 1 cm. The pots were then cultivated in a greenhouse (12-16 h of light, temperature day 20-22° C., night 15-18° C.) until the time of application. The pots were treated at various BBCH stages between 11-25 of the seeds/plants, i.e. generally between two to three weeks after the start of the cultivation, on a laboratory track sprayer with spray liquors comprising the compositions according to the invention, mixtures or components used individually, as WG, WP, EC or other formulations. The application rate for the spray application was 100-600 l of water/ha. After the treatment, the plants were returned to the greenhouses and, when required, treated with fertilizer and watered. • 3. Selective pre-emergence action: seeds of various crop species (origins) were sown in a 8-13 cm diameter pot filled with natural soil of a standard field soil (loamy silt; non-sterile) and covered with a covering soil layer of about 1 cm. The pots were then cultivated in a greenhouse (12-16 h of light, temperature day 20-22° C., night 15-18° C.) until the time of application. The pots were treated at the BBCH stage 00-10 of the seeds/plants on a laboratory track sprayer with spray liquors comprising the compositions according to the invention, mixtures or components used individually, as WG, WP, EC or other formulations. The application rate for the spray application was 100-600 l of water/ha. […]
# [2] = tested on: MATCH (Matricaria chamomilla); test: as above; conditions: PE application; irrigation from below; g of AS/ha: (A) 90, (B) 1200, (C) 140, (A)+(B)+(C) 90 + 1200 + 140
# Procedure: as §1, §2, §3
# [3] = tested on: HORVS (Hordeum vulgare, summer barley); test: Selective post-emergence action (crop compatibility), greenhouse trial, test method 4; conditions: PO application; g of AS/ha: (A) 240, (B) 1200, (C) 140, (A)+(B)+(C) 240 + 1200 + 140
# Procedure: as §1, §2
# (notes: the term “seeds” also includes vegetative propagation forms such as, for example, rhizome pieces; abbreviations used: h light=hours of illumination, g of AS/ha=gram of active substance per hectare, l/ha=liter per hectare, S=sensitive, R=resistant) • 1. Pre-emergence action against weeds: seeds of various broad-leaved weed and weed grass biotypes (origins) were sown in a 8-13 cm diameter pot filled with natural soil of a standard field soil (loamy silt; non-sterile) and covered with a covering soil layer of about 1 cm. The pots were then cultivated in a greenhouse (12-16 h of light, temperature day 20-22° C., night 15-18° C.) until the time of application. […]
# [4] = tested on: ALOMY sensitive (Alopecurus myosuroides); test: PE action on resistant weed biotypes, test method 8; conditions: PE application; g of AS/ha: (A) 90, (B) 1200, (C) 140, (A)+(B)+(C) 90 + 1200 + 140, iodosulfuron 10
# Procedure: as §1, §2, §3
# [5] = tested on: ALOMY resistant (Alopecurus myosuroides); test: as above; conditions: PE application; g of AS/ha: (A) 90, (B) 1200, (C) 140, (A)+(B)+(C) 90 + 1200 + 140, iodosulfuron 10
# Procedure: as §1, §2, §3
# LOLPE (Lolium perenne) [6] = test: Pre-sowing application action against weeds (7 days prior to sowing), test method 5; conditions: application 7 days prior to sowing; g of AS/ha: (A) 90, (B) 1200, (C) 140, (A)+(B)+(C) 90 + 1200 + 140
# Procedure: as §1, §2
# (notes: the term “seeds” also includes vegetative propagation forms such as, for example, rhizome pieces; abbreviations used: h light=hours of illumination, g of AS/ha=gram of active substance per hectare, l/ha=liter per hectare, S=sensitive, R=resistant) • 1. Pre-emergence action against weeds: seeds of various broad-leaved weed and weed grass biotypes (origins) were sown in a 8-13 cm diameter pot filled with natural soil of a standard field soil (loamy silt; non-sterile) and covered with a covering soil layer of about 1 cm. The pots were then cultivated in a greenhouse (12-16 h of light, temperature day 20-22° C., night 15-18° C.) until the time of application. The pots were treated at the BBCH stage 00-10 of the seeds/plants on a laboratory track sprayer with spray liquors comprising the compositions according to the invention, mixtures or components used individually, as WG, WP, EC or other formulations. The application rate for the spray application was 100-600 l of water/ha. After the treatment, the plants were returned to the greenhouses and, when required, treated with fertilizer and watered. • 2. Post-emergence action against weeds: seeds of various broad-leaved weed and weed grass biotypes (origins) were sown in a 8-13 cm diameter pot filled with natural soil of a standard field soil (loamy silt; non-sterile) and covered with a covering soil layer of about 1 cm. The pots were then cultivated in a greenhouse (12-16 h of light, temperature day 20-22° C., night 15-18° C.) until the time of application. […]
# AVEFA (Avena fatua) = test: PE action at different soil pH values, test method 10; conditions: PE application, g of AS/ha: (A) 90, (B) 1200, (C) 140, (A)+(B)+(C) 90 + 1200 + 140
# Procedure: as §1, §2
# [7] = tested on: HORVS (Hordeum vulgare, summer barley); test: Action under various soil conditions (soil types), test method 7, crop compatibility; conditions: g of AS/ha: (A) 90, (B) 1200, (C) 140, (A)+(B)+(C) 90 + 1200 + 140
# Procedure: as §1, §2
# (§4) (notes: the term “seeds” also includes vegetative propagation forms such as, for example, rhizome pieces; abbreviations used: h light=hours of illumination, g of AS/ha=gram of active substance per hectare, l/ha=liter per hectare, S=sensitive, R=resistant) • 1. Pre-emergence action against weeds: seeds of various broad-leaved weed and weed grass biotypes (origins) were sown in a 8-13 cm diameter pot filled with natural soil of a standard field soil (loamy silt; non-sterile) and covered with a covering soil layer of about 1 cm. The pots were then cultivated in a greenhouse (12-16 h of light, temperature day 20-22° C., night 15-18° C.) until the time of application. The pots were treated at the BBCH stage 00-10 of the seeds/plants on a laboratory track sprayer with spray liquors comprising the compositions according to the invention, mixtures or components used individually, as WG, WP, EC or other formulations. The application rate for the spray application was 100-600 l of water/ha. After the treatment, the plants were returned to the greenhouses and, when required, treated with fertilizer and watered. • 2. Post-emergence action against weeds: seeds of various broad-leaved weed and weed grass biotypes (origins) were sown in a 8-13 cm diameter pot filled with natural soil of a standard field soil (loamy silt; non-sterile) and covered with a covering soil layer of about 1 cm. The pots were then cultivated in a greenhouse (12-16 h of light, temperature day 20-22° C., night 15-18° C.) until the time of application. The pots were treated at various BBCH stages between 11-25 of the seeds/plants, i.e. generally between two to three weeks after the start of the cultivation, on a laboratory track sprayer with spray liquors comprising the compositions according to the invention, mixtures or components used individually, as WG, WP, EC or other formulations. The application rate for the spray application was 100-600 l of water/ha. After the treatment, the plants were returned to the greenhouses and, when required, treated with fertilizer and watered. • 3. […]
# [8] = tested on: MATCH (Matricaria chamomilla); test: Action under various soil conditions (soil types), test method 7; conditions: g of AS/ha: (A) 90, (B) 1200, (C) 140, (A)+(B)+(C) 90 + 1200 + 140
# Procedure: as §1, §2, §3
# STEME (Stellaria media) = test: as above; conditions: IU/EC73 soil versus IU soil; g of AS/ha: (A) 90, (B) 1200, (C) 140, (A)+(B)+(C) 90 + 1200 + 140
# Procedure: as §1, §2, §3
# POAAN (Poa annua) = test: Post-emergence (PO) action against weeds, greenhouse trial, test method 2; conditions: PO application; g of AS/ha: (A) 240, (B) 1200, (C) 140, (A)+(B)+(C) 240 + 1200 + 140
# Procedure: as §1, §2, §4
# VIOAR (Viola arvensis) = test: as above; conditions: PO application; g of AS/ha: (A) 240, (B) 1200, (C) 140, (A)+(B)+(C) 240 + 1200 + 140
# Procedure: as §1, §2, §4
SMILES,activity LOLPE (LOLPE (Lolium perenne) [1]; irrigation from above),activity LOLPE (LOLPE (Lolium perenne) [1]; irrigation from below),activity MATCH [2],"activity HORVS (crop plant; visual, scale 0-100%) [3]",activity ALOMY sensitive [4],activity ALOMY resistant [5],activity LOLPE (LOLPE (Lolium perenne) [6]),activity AVEFA pH 7.4 (AVEFA (Avena fatua); soil pH 7.4),activity AVEFA pH 8.4 (AVEFA (Avena fatua); soil pH 8.4),activity HORVS IU soil (crop plant) ([7]; IU soil),"Difference of the soil types, HORVS ([7]; IU/EC73 soil versus IU soil)",activity MATCH IU soil ([8]; IU soil),"Difference of the soil types, MATCH ([8]; IU/EC73 soil versus IU soil)",activity MATCH IU/EC73 soil ([8]; IU/EC73 soil),"Difference of the soil types, STEME (STEME (Stellaria media))","activity POAAN (visual, scale 0-100%) (POAAN (Poa annua))","activity VIOAR (visual, scale 0-100%) (VIOAR (Viola arvensis))"
"CSc1nnc(C(C)(C)C)c(=O)n1N [(C) metribuzin, 4-amino-6-(1,1-dimethylethyl)-3-(methylthio)-1,2,4-triazin-5(4H)-one]",55%,48%,60%,70%,85%,80%,100%,90%,90%,20%,−20%,0%,+15%,15%,−70%,79%,90%
"COc1nc(C)nc(NC(=O)NS(=O)(=O)c2cc(I)ccc2C(=O)O)n1 [(C)^1 iodosulfuron, iodosulfuron]",–,–,–,–,90%,40%,–,–,–,–,–,–,–,–,–,–,–
